Assay results as given in patent publication US12391962B2, “Targeting peptide to deliver a compound to oocytes” (THE PENN STATE RESEARCH FOUNDATION, priority 2017, dated 2025).
“And” between values parts separate entries of the source, which are not always exact repeats. Identical values can stand only once. “Also recorded” adds a separate entry of the source.

Key:
kmo gene = assay: Paternal allele knockout by adult female injection: white eye females x wild-type males; format: in vivo, Aedes aegypti; settings: EER co-injected with RNP; for mosaic offspring per injected females with the endosomal release reagent: 48-52 h PBF, 1/20 females; for altered offspring with the endosomal release reagent: females injected at 48-52 h PBF
Text: After mating as described in the above, females (generation −1; G−1) were blood fed and injected with P2C-Cas9 RNPs and EERs. Resulting G0 offspring were screened for kmo gene editing phenotypes (white or mosaic eyes). Genomic DNA from identified individuals was extracted using DNeasy blood and tissue kits (Qiagen) and the region spanning both kmo 460 and 519* sites amplified by PCR using primers ZA2210 (5′TTC-AAG-ACC-AGG-CCT-CAA-TC3′) (SEQ ID NO: 35) and KmR1 (5′TCA-CTA-AAC-TCA-GCC-AGT-ATC-CTA-T3′) (SEQ ID NO: 36) and cloned into the pJET1.2 vector. A minimum of 6 clones per individual were randomly selected and sequenced.
In order to estimate the frequency of paternal gene editing, homozygous Wh-Iso8-kmo^460 females outcrossed to homozygous wild type males were injected at 48-52 h PBF. […] The region spanning the target sites from the mosaic individual collected from saponin treatment was cloned and sequenced (FIG. 10A). […] The genomic DNA from the monensin and spontaneous white eye individuals were not of suitable quality for PCR and cloning.

Ae. aegypti females = assay: LD50 of endosomal escape reagents injected into the hemolymph 24h PBF; settings: injected into the hemolymph of females 24h PBF; 100 females injected
B. tabaci white gene = assay: Knockout of the B. tabaci white gene by ReMOT Control (adult female injection); format: in vivo, Bemisia tabaci
Procedure: The females were injected and placed on a piece of soybean leaflet in a petri dish with a moist paper towel wrapped around the stem and another paper towel on the bottom plate to prolong the life of the leaflet. Water and liquid fertilizer were added as needed. Females were removed from the leaflet 2 weeks post injection. The petri dishes were incubated at 28° C., 16L/8D cycle, in a humidified Heratherm IMH750-S reach-in chamber, and the progeny of injected females screened visually for altered eye color in nymphs or adults using an Olympus SZX7 stereomicroscope. Mutations in insects showing altered eye color were confirmed by PCR using PHIRE Tissue Direct PCR Master Mix (Thermo Fischer Scientific), the amplicon was cloned into pJET1.2, and clones were submitted for Sanger sequencing.
For proof of principle gene editing experiments, we chose the white gene, which is an ABC transporter protein responsible for transport of ommochrome pigments into the eyes.

recombinant Cas9 = target: T1, recombinant Cas9 (Streptococcus pyogenes serotype M1, UniProt Q99ZW2); assay: In vitro DNA cleavage assay; format: biochemical; settings: gel separation
T1 construct: vector-derived additions of pET28a-Cas9-cys (the plasmid name implies an added Cys); made in house; host or cells: E. coli BL21 and Rosetta2 (DE3) pLysS
T1 sequence (Q99ZW2 whole entry): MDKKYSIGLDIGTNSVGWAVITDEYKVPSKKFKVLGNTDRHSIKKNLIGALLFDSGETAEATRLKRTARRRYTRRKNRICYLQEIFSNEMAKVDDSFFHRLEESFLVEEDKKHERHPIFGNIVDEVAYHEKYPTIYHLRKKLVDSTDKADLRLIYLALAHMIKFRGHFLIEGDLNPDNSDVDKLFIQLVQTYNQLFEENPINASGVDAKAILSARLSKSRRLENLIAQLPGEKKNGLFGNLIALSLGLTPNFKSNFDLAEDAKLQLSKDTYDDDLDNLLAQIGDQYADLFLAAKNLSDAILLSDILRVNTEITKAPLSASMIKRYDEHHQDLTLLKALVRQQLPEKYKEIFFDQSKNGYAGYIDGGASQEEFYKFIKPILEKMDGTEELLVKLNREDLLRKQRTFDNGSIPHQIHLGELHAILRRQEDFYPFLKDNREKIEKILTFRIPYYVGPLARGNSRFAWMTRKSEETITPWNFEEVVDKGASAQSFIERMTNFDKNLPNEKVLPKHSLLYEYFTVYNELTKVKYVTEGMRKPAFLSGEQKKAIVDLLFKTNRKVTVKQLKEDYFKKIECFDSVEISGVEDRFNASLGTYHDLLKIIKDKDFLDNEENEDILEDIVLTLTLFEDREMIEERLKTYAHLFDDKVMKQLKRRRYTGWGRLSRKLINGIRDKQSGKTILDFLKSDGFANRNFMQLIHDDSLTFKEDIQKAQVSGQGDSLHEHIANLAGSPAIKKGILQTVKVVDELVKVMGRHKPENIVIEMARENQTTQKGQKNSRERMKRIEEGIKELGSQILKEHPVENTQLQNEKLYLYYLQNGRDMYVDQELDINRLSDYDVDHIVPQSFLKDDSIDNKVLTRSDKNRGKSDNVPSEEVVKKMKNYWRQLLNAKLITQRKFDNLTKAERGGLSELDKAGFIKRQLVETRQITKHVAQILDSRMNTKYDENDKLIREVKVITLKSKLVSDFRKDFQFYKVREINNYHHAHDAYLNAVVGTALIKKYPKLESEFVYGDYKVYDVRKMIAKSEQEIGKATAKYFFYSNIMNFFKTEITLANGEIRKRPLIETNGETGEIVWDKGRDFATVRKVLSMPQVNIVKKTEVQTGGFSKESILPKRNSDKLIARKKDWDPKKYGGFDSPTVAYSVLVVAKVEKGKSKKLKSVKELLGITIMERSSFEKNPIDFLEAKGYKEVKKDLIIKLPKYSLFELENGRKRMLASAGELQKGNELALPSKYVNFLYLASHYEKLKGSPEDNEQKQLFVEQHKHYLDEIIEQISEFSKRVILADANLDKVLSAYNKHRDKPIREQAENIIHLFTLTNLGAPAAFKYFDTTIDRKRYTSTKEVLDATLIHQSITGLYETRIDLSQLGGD
Procedure: Reactions were performed for 1 h at 37° C. and diagnostic bands visualized by electrophoresis in a 1% agarose/TAE gel.

[1] = test system: Anopheles gambiae oocytes; assay: Ovary uptake of EGFP fusion proteins after injection into blood-fed females (fluorescence microscopy); format: in vivo
Procedure: To show DmYP1 (or fragments thereof) act as suitable ligands to deliver protein cargo into mosquito oocytes, a DmYP1-EGFP, or fragments of DmYP1-EGFP, fusion protein was expressed and injected into the thorax of Anopheles gambiae females 12 and 24 h post-blood feeding (PBF).
Injections were performed with an aspirator tube assembly (A5177, Sigma) fitted with a glass capillary needle. Adult females were immobilized at 4° C. following a bloodmeal and kept on ice during injection. Females were injected intrathoracically until no additional fluid would enter, at an approximate volume of 200 nl per female. To visually confirm EGFP in the ovaries following injection, ovaries were dissected, mounted in saline buffer mixed with SlowFade Gold® antifade reagent (Invitrogen), covered with a coverslip and imaged on an Olympus BX41 epifluorescent microscope. Negative controls were injected with recombinant EGFP lacking a targeting ligand.
A deletion analysis of the DmYP1 protein was conducted to identify the smaller region that efficiently transduced cargo into mosquito ovaries. Three portions of approximately 120 amino acids (FIG. 1) were encoded on an expression plasmid linked to EGFP via a Glycine-Serine linker. Fusion proteins included the DmYP1 secretion signal at the N-terminus. The construct was inserted into the plasmid pAc5-STABLE1-Neo under control of the Drosophila Actin5C promoter. Plasmids were transfected into Drosophila S2 cells using Lipofectamine® LTX WITH Plus™ Reagent (ThermoFisher). Cell culture supernatant was collected 72 hours post-transfection, concentrated 100× using Amicon® and Centricon® Plus-70 centrifugal filter devices (Millipore) and injected into female An. gambiae 12 and 24 hours PBF. Ovaries were dissected 12, 24 and 48 h hours post-injection, dissected and visualized for EGFP fluorescence. EGFP fusion protein fused to the full length DmYP1 protein (439 amino acids) was used as a positive control, while recombinant EGFP without a targeting ligand was used as a negative control.

mealybug ovaries = assay: P2C-mediated delivery of EGFP to mealybug ovaries; format: in vivo; settings: procedure of Example 1
Procedure: To determine if P2C could be used in to deliver cargo in species other than mosquito, it was tested on mealybugs using the procedure of Example 1. […] Therefore, P2C is an effective targeting molecule in more than just mosquitoes.

[2] = injection 12 h PBF, Total of 2 replicates
[3] = injection 24 h PBF, Total of 2 replicates

## CC[C@@]1([C@@H]2O[C@@H]([C@H]3O[C@@](O)(CO)[C@H](C)C[C@@H]3C)C[C@@H]2C)CC[C@H]([C@]2(C)CC[C@]3(C[C@H](O)[C@@H](C)[C@@H]([C@@H](C)[C@@H](OC)[C@H](C)C(=O)O)O3)O2)O1 [Monensin]
Kmo gene
  mosaic offspring per injected females with the endosomal release reagent: 5%
Ae. aegypti females
  LD50: 1.0 mM

## Saponin [reference compound]
Kmo gene
  mosaic offspring per injected females with the endosomal release reagent: 5%
B. tabaci white gene; higher concentrations (8, 16 μg/mL)
  effect of saponin as endosome escape reagent on editing: inhibitory; also recorded: detrimental to the process
Ae. aegypti females
  LD50: 0.024 mM

## CCN(CC)CCCC(C)Nc1ccnc2cc(Cl)ccc12 (stereo not shown) [Chloroquine]
Recombinant Cas9
  effect on Cas9 cleavage function in vitro: did not affect Cas9 cleavage function in vitro
Recombinant Cas9; listed as chloroquine
  effect on Cas9 cleavage function in vitro: not inhibited
Kmo gene
  altered offspring with the endosomal release reagent: no altered offspring

## Cl.N [Ammonium Chloride]
Kmo gene
  altered offspring with the endosomal release reagent: no altered offspring

## O=C(N/N=C/c1ccc(O)c(O)c1)c1cc2ccccc2cc1O [dynasore]
Kmo gene
  altered offspring with the endosomal release reagent: no altered offspring

## NLQQQRQHGKNGNQDYQDQSNEQRKNQRTSSEEDYSEEVKN (Drosophila melanogaster) [P2C]
[1]; embryo development
  localization of transduced EGFP: observed in yolk granules (arrows) throughout embryo development
[1]; fragments expressed as EGFP fusion proteins
  ovary uptake / delivery of EGFP in deletion analysis of DmYP1: contained the RBR; also recorded: fully sufficient to deliver EGFP to Anopheles oocytes
[1]; injected 12 h, ovaries dissected 24 h PBF
  dose dependence of P2C-mediated transduction of EGFP: dose-dependent
Mealybug ovaries
  delivery of EGFP into eggs: able to specifically deliver EGFP into the developing vitellogenic eggs, but not the immature eggs
B. tabaci white gene; Cas9 RNP injections, with or without saponin
  gene editing outcome by targeting peptide (in words): did not function robustly; also recorded: did not result in any visibly edited offspring; also recorded: did not generate knockouts

B1: DmYP1-EGFP: fusion protein of full length Drosophila melanogaster Yolk Protein 1 (439 amino acids) with EGFP (protein)
chain: PNGRMDNSVNQALKPSQWLSGSQLEAIPALDDFTIERLENMNLERGAELLQQVYHLSQIHHNVEPNYVPSGIQVYVPKPNGDKTVAPLNEMIQRLKQKQNFGEDEVTIIVTGLPQTSETVKKATRKLVQAYMQRYNLQQQRQHGKNGNQDYQDQSNEQRKNQRTSSEEDYSEEVKNAKTQSGDIIVIDLGSKLNTYERYAMLDIEKTGAKIGKWIVQMVNELDMPFDTIHLIGQNVGAHVAGAAAQEFTRLTGHKLRRVTGLDPSKIVAKSKNTLTGLARGDAEFVDAIHTSVYGMGTPIRSGDVDFYPNGPAAGVPGASNVVEAAMRATRYFAESVRPGNERSFPAVPANSLQQYKQNDGFGKRAYMGIDTAHDLEGDYILQVNPKSPFGRNAPAQKQSSYHGVHQAWNTNQDSKDYQ
modifications: left off: small tags and cut ends; large carriers
notes: fusion protein of full length Drosophila melanogaster Yolk Protein 1 (439 amino acids) with EGFP
[1]; injection 12 h PBF
  % Follicles (Efficiency): 100% and 98%
  N Follicles with EGFP: 243 and 381
[1]; injection 12 h PBF, 20 females injected per replicate
  N (showing EGFP in follicles): 17 and 19
[1]; [2]
  % Follicles (Efficiency): 99.7%^
  N Follicles with EGFP: 624
[1]; injection 12 h PBF, Total of 2 replicates, 40 injected
  N (showing EGFP in follicles): 36
[1]; injection 24 h PBF
  % Follicles (Efficiency): 98% and 99%
  N Follicles with EGFP: 245 and 197
[1]; injection 24 h PBF, 20 females injected per replicate
  N (showing EGFP in follicles): 18 and 17
[1]; [3]
  % Follicles (Efficiency): 98.2%^
  N Follicles with EGFP: 442
[1]; injection 24 h PBF, Total of 2 replicates, 40 injected
  N (showing EGFP in follicles): 35
[1]; regardless of the timing of the injection, ovaries dissected 24-72 h PBF
  primary oocytes with EGFP visualized: 90-100%
